# Experimental data reported in paper PMC5701060, “Inhibition of the inflammatory response to stress by targeting interaction between PKR and its cellular activator PACT” (Scientific Reports, 2017).
# Target: T1, PKR/PACT (GST-PKR-Nter / His-PACT) (Homo sapiens, UniProt O75569+P19525)
# T1 construct: gene EIF2AK2; PKR 1-265 (both DRBDs, no kinase domain) with N-terminal GST; full-length PACT with N-terminal His tag; E. coli
# Experiment: HTRF protein-protein interaction assay
# Format: binding
# T1 sequence (P19525 1-265): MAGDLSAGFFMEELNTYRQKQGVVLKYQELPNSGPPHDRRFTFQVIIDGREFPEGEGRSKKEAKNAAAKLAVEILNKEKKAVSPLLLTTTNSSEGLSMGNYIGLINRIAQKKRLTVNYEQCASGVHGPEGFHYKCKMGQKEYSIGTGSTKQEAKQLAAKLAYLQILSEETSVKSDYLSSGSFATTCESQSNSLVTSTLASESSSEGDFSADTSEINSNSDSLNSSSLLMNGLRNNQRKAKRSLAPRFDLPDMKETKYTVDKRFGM
# T1 sequence (O75569 whole entry, the tested form may be a part): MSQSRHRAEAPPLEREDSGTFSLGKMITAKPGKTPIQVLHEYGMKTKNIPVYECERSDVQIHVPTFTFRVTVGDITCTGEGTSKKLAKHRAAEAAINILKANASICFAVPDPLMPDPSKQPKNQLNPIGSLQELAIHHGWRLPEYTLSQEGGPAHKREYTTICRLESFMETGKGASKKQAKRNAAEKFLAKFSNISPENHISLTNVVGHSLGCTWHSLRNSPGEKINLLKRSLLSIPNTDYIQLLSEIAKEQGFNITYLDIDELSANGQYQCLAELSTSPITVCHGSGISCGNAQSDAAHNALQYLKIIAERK
row,Compound,IC50 [nM]
1,O=c1cc(-c2ccc(O)c(O)c2)oc2cc(O)cc(O)c12 [luteolin],50000
2,O=c1c(O)c(-c2cc(O)c(O)c(O)c2)oc2cc(O)cc(O)c12 [myricetin],600
3,O=c1c(O)c(-c2ccc(O)c(O)c2)oc2cc(O)cc(O)c12 [quercetin],2000
